Values of other authors, collected in patent US8536169B2, “Compounds” (Glaxo Group Limited, priority 2008, dated 2013).

Experiments:
neutrophils [1] = details: treatment of neutrophils; Thelen et al. 1994
neutrophils [2] = test system: neutrophils
Class I PI3-kinases = details: read-out: IC50 against each of the various Class I PI3-kinases
neutrophils [3] = test system: neutrophils; remark: listed apart in the source

Row | Compound | fMLP-induced respiratory burst response (neutrophils [1]) | superoxide release (neutrophils [2]) | IC50 (Class I PI3-kinases) [nM] | neutrophil migration (neutrophils [3]) | inhibitory activity on phospholipases (phospholipases)
1 | wortmannin | prevents | block | 1 to 10 | block | 
2 | O=c1cc(N2CCOCC2)oc2c(-c3ccccc3)cccc12 [LY294002] |  | block |  | block | some inhibitory activity
